# From patent US20050014806A1, “Substituted isoxazoles and their use as antibiotics” (priority 2001, published 2005)
# Tests used:
# [1] = system: Streptococcus faecalis (BCM-010); assay: MIC by microdilution in microtiter plate, BCM-010; format: cell-based; settings: Enterococcus faecalis, incubation 24 h at 35° C.
# Experimental: (§1) In order to assess the antimicrobial activity of the compounds of the present invention a method of microdilution in microtiter plate was used. The compounds were diluted in a nutritious medium and, subsequently, distributed by two-fold serial dilutions in 96 well plates. Then, plates were inoculated with a bacterial suspension. After incubation for 24 h at 35° C. the minimum inhibitory concentration (MIC) of the drug in […] was determined as the lowest concentration of compound which inhibits the growth of the bacterium. Results included in Table 1 illustrate the antimicrobial activity of some of the compounds of the present invention in comparison with thus obtained with two compounds (linezolid and eperezolid) of a known antimicrobial activity. The antimicrobial activity of the compound versus Streptococcus faecalis (BCM-010, strain designation as for SALVAT collection) Staphylococcus aureus (BCM-012, strain designation as for SALVAT collection) and Moraxella catarrhalis (BCM-015, strain designation as for SALVAT collection), respectively, is shown in the different columns.
# [2] = system: Staphylococcus aureus (BCM-012); assay: MIC by microdilution in microtiter plate, BCM-012; format: cell-based; settings: incubation 24 h at 35° C.
# Experimental: as §1
# HCT-116 = assay: cells; format: cell-based, human; settings: for viability at 100 µM: Homo sapiens, HCT-116, read-out: Cell viability percentage at 100 μM HCT-116
# Experimental: (§2) Antitumoral activity of the compounds of the present invention was evaluated by determining in vitro cell growth inhibition of 2 human colon adenocarcinome cell lines. The SBR (Sulphorhodamine B) protein dye assay described by the NCI (National Cancer Institute) was used. Results of Table 2 illustrate the antiproliferative activity of some of the compounds of the present invention versus the one obtained with exisulind (sulindac sulfone).
# HT-29 = assay: cells; format: cell-based, human; settings: for viability at 100 µM: Homo sapiens, HT-29, read-out: Cell viability percentage at 100 μM HT-29
# Experimental: as §2
# [3] = system: Moraxella catarrhalis (BCM-015); assay: MIC by microdilution in microtiter plate, BCM-015; format: cell-based; settings: incubation 24 h at 35° C.
# Experimental: as §1
Compound,MIC [1],MIC [2],viability at 100 µM (HCT-116),viability at 100 µM (HT-29),MIC [3],Cell viability percentage at 100 μM HCT-116 (HCT-116),Cell viability percentage at 100 μM HT-29 (HT-29)
OCc1cn(-c2ccc(-c3cc(CNc4ccon4)on3)cc2F)cn1 [Example 4],4 µg/mL,2 µg/mL,57.1%,66.1%,–,–,–
Cc1cn(-c2ccc(-c3cc(CNc4ccon4)on3)cc2F)cn1 [Example 38],–,–,48.6%,53.3%,–,–,–
N#C/C=C/c1cn(-c2ccc(-c3cc(CNc4ccon4)on3)cc2F)cn1 [Example 28],1 µg/mL,0.5 µg/mL,64.7%,71.2%,4 µg/mL,–,–
N#C/C=C/c1ccn(-c2ccc(-c3cc(CNc4ccon4)on3)cc2F)c1 [Example 36],–,–,77.1%,14.3%,–,–,–
Cc1cc(NCc2cc(-c3ccc(-n4ccc(/C=C/C#N)c4)c(F)c3)no2)sn1 [Example 37],–,–,18.9%,< 5%,–,–,–
"sulindac sulfone [Exisulind, reference compound]",–,–,–,–,–,44.1%,38.1%
